Data published in patent US7411083B2, “Substituted acetic acid derivatives” (Wyeth, priority 2003, dated 2008).

The compounds below were run against T1, recombinant human plasminogen activator inhibitor-1 (PAI-1) (Homo sapiens, UniProt P05121) (assay: Screening for PAI-1 inhibition (residual tPA activity, Spectrozyme-tPA chromogenic substrate)). Conditions: test compound at 100 Um; pH 6.6 buffer, 140 nM PAI-1, 70 nM tPA.
T1 construct: purchased Molecular Innovations, Royal Oak, Mich
Format: biochemical
Description: Screening for PAI-1 inhibition. Test compounds are dissolved in DMSO at a final concentration of 10 Mm, then diluted 100× in physiologic buffer. The inhibitory assay is initiated by the addition of the test compound (1-100 μM final concentration, maximum DMSO concentration of 0.2%) in a Ph 6.6 buffer containing 140 Nm recombinant human plasminogen activator inhibitor-1 (PAI-1; Molecular Innovations, Royal Oak, Mich.). Following a 1 hour incubation at room temperature, 70 Nm of recombinant human tissue plasminogen activator (Tpa) is added, and the combination of the test compound, PAI-1 and Tpa is incubated for an additional 30 minutes. Following the second incubation, Spectrozyme-Tpa (American Diagnostica, Greenwich, Conn.), a chromogenic substrate for Tpa, is added and absorbance read at 405 nm at 0 and 60 minutes. Relative PAI-1 inhibition is equal to the residual Tpa activity in the presence of the test compounds and PAI-1. Control treatments include the complete inhibition of Tpa by PAI-1 at the molar ratio employed (2:1), and the absence of any effect of the test compound on Tpa alone.

T1 sequence (P05121 24-402): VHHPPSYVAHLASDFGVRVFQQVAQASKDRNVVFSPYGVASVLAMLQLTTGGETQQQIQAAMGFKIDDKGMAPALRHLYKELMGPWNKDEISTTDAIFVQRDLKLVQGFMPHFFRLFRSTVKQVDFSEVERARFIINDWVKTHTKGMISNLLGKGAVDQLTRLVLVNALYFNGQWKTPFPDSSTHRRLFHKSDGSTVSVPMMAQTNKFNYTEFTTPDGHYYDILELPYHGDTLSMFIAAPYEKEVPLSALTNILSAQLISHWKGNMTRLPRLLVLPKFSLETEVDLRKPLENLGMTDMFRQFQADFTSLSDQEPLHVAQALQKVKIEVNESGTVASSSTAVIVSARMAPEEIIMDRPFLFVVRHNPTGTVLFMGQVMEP

| inhibition at 100 µM [%] | Structure (SMILES) |
| --- | --- |
| 59 | O=C(O)CO/N=C/c1cccc(-c2ccc(OCc3ccc(C(F)(F)F)cc3)cc2)c1 [Compound 73, ({[(1E)-(4′-{[4-(trifluoromethyl)benzyl]oxy}-1,1′-biphenyl-3-yl)methylidene]amino}oxy)acetic acid] |
| 34 | CC(C)(C)c1ccc(COc2ccc(-c3cccc(/C=N/OCC(=O)O)c3)cc2)cc1 [Compound 74, {[((1E)-{4′-[(4-tert-butylbenzyl)oxy]-1,1′-biphenyl-3-yl}methylidene)amino]oxy}acetic acid] |
| 75 | O=C(O)CO/N=C/c1cccc(-c2ccc(OCc3ccc(Br)cc3)cc2)c1 [Compound 75, {[((1E)-{4′-[(4-bromobenzyl)oxy]-1,1′-biphenyl-3-yl}methylidene)amino]oxy}acetic acid] |
| 73 | O=C(O)CO/N=C/c1cccc(-c2ccc(OCc3cc(C(F)(F)F)cc(C(F)(F)F)c3)cc2)c1 [Compound 76, ({[(1E)-(4′-{[3,5-bis(trifluoromethyl)benzyl]oxy}-1,1′-biphenyl-3-yl)methylidene]amino}oxy)acetic acid] |
| 85 | O=C(O)CO/N=C/c1cccc(-c2ccc(OCc3cccc(Br)c3)cc2)c1 [Compound 77, {[((1E)-{4′-[(3-bromobenzyl)oxy]-1,1′-biphenyl-3-yl}methylidene)amino]oxy}acetic acid] |
| 23 | O=C(O)CO/N=C/c1cccc(-c2ccc(OCc3cccc(Cl)c3)cc2)c1 [Compound 78, {[((1E)-{4′-[(3-chlorobenzyl)oxy]-1,1′-biphenyl-3-yl}methylidene)amino]oxy}acetic acid] |
| 53 | O=C(O)CO/N=C/c1cccc(-c2ccc(OCc3ccccc3)cc2)c1 [Compound 79, [({(1E)-[4′-(benzyloxy)-1,1′-biphenyl-3-yl]methylidene}amino)oxy]acetic acid] |
| 78 | O=C(O)CO/N=C/c1cccc(-c2ccc(OCc3cccc(C(F)(F)F)c3)cc2)c1 [Compound 80, ({[(1E)-(4′-{[3-(trifluoromethyl)benzyl]oxy}-1,1′-biphenyl-3-yl)methylidene]amino}oxy)acetic acid] |
| 28 | O=C(O)CO/N=C/c1cccc(-c2ccc(OCc3ccc(Cl)cc3)cc2)c1 [Compound 81, {[((1E)-{4′-[(4-chlorobenzyl)oxy]-1,1′-biphenyl-3-yl}methylidene)amino]oxy}acetic acid] |
| 89 | O=C(O)CO/N=C/c1cccc(-c2ccc(OCc3ccccc3Cl)cc2)c1 [Compound 82, {[((1E)-{4′-[(2-chlorobenzyl)oxy]-1,1′-biphenyl-3-yl}methylidene)amino]oxy}acetic acid] |
| 57 | O=C(O)CO/N=C/c1cccc(-c2ccc(OCc3ccc(Cl)c(Cl)c3)cc2)c1 [Compound 83, {[((1E)-{4′-[(3,4-dichlorobenzyl)oxy]-1,1′-biphenyl-3-yl}methylidene)amino]oxy}acetic acid] |
| 30 | O=C(O)CO/N=C/c1cccc(-c2ccc(OCc3ccc4ccccc4c3)cc2)c1 [Compound 84, [({(1E)-[4′-(2-naphthylmethoxy)-1,1′-biphenyl-3-yl]methylidene}amino)oxy]acetic acid] |
| 34 | Cc1ccc(COc2ccc(-c3cccc(/C=N/OCC(=O)O)c3)cc2)cc1 [Compound 85, {[((1E)-{4′-[(4-methylbenzyl)oxy]-1,1′-biphenyl-3-yl}methylidene)amino]oxy}acetic acid] |
| 22 | Cc1cccc(COc2ccc(-c3cccc(/C=N/OCC(=O)O)c3)cc2)c1 [Compound 86, {[((1E)-{4′-[(3-methylbenzyl)oxy]-1,1′-biphenyl-3-yl}methylidene)amino]oxy}acetic acid] |
| 85 | O=C(O)CO/N=C/c1cccc(-c2ccc(OCc3c(Cl)cccc3Cl)cc2)c1 [Compound 87, {[((1E)-{4′-[(2,6-dichlorobenzyl)oxy]-1,1′-biphenyl-3-yl}methylidene)amino]oxy}acetic acid] |
| 34 | O=C(O)CO/N=C/c1ccc(-c2cccc(OCc3ccc(C(F)(F)F)cc3)c2)cc1 [Compound 88, ({[(1E)-(3′-{[4-(trifluoromethyl)benzyl]oxy}-1,1′-biphenyl-4-yl)methylidene]amino}oxy)acetic acid] |
| 57 | CC(C)(C)c1ccc(COc2cccc(-c3ccc(/C=N/OCC(=O)O)cc3)c2)cc1 [Compound 89, {[((1E)-{3′-[(4-tert-butylbenzyl)oxy]-1,1′-biphenyl-4-yl}methylidene)amino]oxy}acetic acid] |
| 30 | O=C(O)CO/N=C/c1ccc(-c2cccc(OCc3cc(C(F)(F)F)cc(C(F)(F)F)c3)c2)cc1 [Compound 90, ({[(1E)-(3′-{[3,5-bis(trifluoromethyl)benzyl]oxy}-1,1′-biphenyl-4-yl)methylidene]amino}oxy)acetic acid] |

| inhibition at 100 µM [%] | Structure (SMILES) |
| --- | --- |
| 77 | O=C(O)CO/N=C/c1ccc(-c2cccc(OCc3cccc(Br)c3)c2)cc1 [Compound 91, {[((1E)-{3′-[(3-bromobenzyl)oxy]-1,1′-biphenyl-4-yl}methylidene)amino]oxy}acetic acid] |
| 76 | O=C(O)CO/N=C/c1ccc(-c2cccc(OCc3cccc(Cl)c3)c2)cc1 [Compound 92, {[((1E)-{3′-[(3-chlorobenzyl)oxy]-1,1′-biphenyl-4-yl}methylidene)amino]oxy}acetic acid] |
| 85 | O=C(O)CO/N=C/c1ccc(-c2cccc(OCc3ccccc3)c2)cc1 [Compound 93, [({(1E)-[3′-(benzyloxy)-1,1′-biphenyl-4-yl]methylidene}amino)oxy]acetic acid] |
| 74 | O=C(O)CO/N=C/c1ccc(-c2cccc(OCc3cccc(C(F)(F)F)c3)c2)cc1 [Compound 94, ({[(1E)-(3′-{[3-(trifluoromethyl)benzyl]oxy}-1,1′-biphenyl-4-yl)methylidene]amino}oxy)acetic acid] |
| 27 | O=C(O)CO/N=C/c1ccc(-c2cccc(OCc3ccc(Cl)cc3)c2)cc1 [Compound 95, {[((1E)-{3′-[(4-chlorobenzyl)oxy]-1,1′-biphenyl-4-yl}methylidene)amino]oxy}acetic acid] |
| 61 | O=C(O)CO/N=C/c1ccc(-c2cccc(OCc3ccccc3Cl)c2)cc1 [Compound 96, {[((1E)-{3′-[(2-chlorobenzyl)oxy]-1,1′-biphenyl-4-yl}methylidene)amino]oxy}acetic acid] |
| 65 | O=C(O)CO/N=C/c1ccc(-c2cccc(OCc3ccc(Cl)c(Cl)c3)c2)cc1 [Compound 97, {[((1E)-{3′-[(3,4-dichlorobenzyl)oxy]-1,1′-biphenyl-4-yl}methylidene)amino]oxy}acetic acid] |
| 46 | O=C(O)CO/N=C/c1ccc(-c2cccc(OCc3ccc4ccccc4c3)c2)cc1 [Compound 98, [({(1E)-[3′-(2-naphthylmethoxy)-1,1′-biphenyl-4-yl]methylidene}amino)oxy]acetic acid] |
| 84 | Cc1ccc(COc2cccc(-c3ccc(/C=N/OCC(=O)O)cc3)c2)cc1 [Compound 99, {[((1E)-{3′-[(4-methylbenzyl)oxy]-1,1′-biphenyl-4-yl}methylidene)amino]oxy}acetic acid] |
| 63 | Cc1cccc(COc2cccc(-c3ccc(/C=N/OCC(=O)O)cc3)c2)c1 [Compound 100, {[((1E)-{3′-[(3-methylbenzyl)oxy]-1,1′-biphenyl-4-yl}methylidene)amino]oxy}acetic acid] |
| 10 | O=C(O)CO/N=C/c1ccc(-c2cccc(OCc3c(Cl)cccc3Cl)c2)cc1 [Compound 101, {[((1E)-{3′-[(2,6-dichlorobenzyl)oxy]-1,1′-biphenyl-4-yl}methylidene)amino]oxy}acetic acid] |
| 26 | CC(C)(C)c1ccc(COc2ccc(-c3ccc(/C=N/OCC(=O)O)cc3)cc2)cc1 [Compound 102, {[((1E)-{4′-[(4-tert-butylbenzyl)oxy]-1,1′-biphenyl-4-yl}methylidene)amino]oxy}acetic acid] |
| 62 | O=C(O)CO/N=C/c1ccc(-c2ccc(OCc3cccc(Br)c3)cc2)cc1 [Compound 103, {[((1E)-{4′-[(3-bromobenzyl)oxy]-1,1′-biphenyl-4-yl}methylidene)amino]oxy}acetic acid] |
| 5 | O=C(O)CO/N=C/c1ccc(-c2ccc(OCc3cccc(Cl)c3)cc2)cc1 [Compound 104, {[((1E)-{4′-[(3-chlorobenzyl)oxy]-1,1′-biphenyl-4-yl}methylidene)amino]oxy}acetic acid] |
| 5 | O=C(O)CO/N=C/c1ccc(-c2ccc(OCc3ccccc3)cc2)cc1 [Compound 105, [({(1E)-[4′-(benzyloxy)-1,1′-biphenyl-4-yl]methylidene}amino)oxy]acetic acid] |
| 8 | O=C(O)CO/N=C/c1ccc(-c2ccc(OCc3cccc(C(F)(F)F)c3)cc2)cc1 [Compound 106, ({[(1E)-(4′-{[3-(trifluoromethyl)benzyl]oxy}-1,1′-biphenyl-4-yl)methylidene]amino}oxy)acetic acid] |
| 30 | O=C(O)CO/N=C/c1ccc(-c2ccc(OCc3ccccc3Cl)cc2)cc1 [Compound 107, {[((1E)-{4′-[(2-chlorobenzyl)oxy]-1,1′-biphenyl-4-yl}methylidene)amino]oxy}acetic acid] |
